# Results reported in ChEMBL document CHEMBL2074372, “CHO/hPEPT1 cells overexpressing the human peptide transporter (hPEPT1) as an alternative in vitro model for peptidomimetic drugs” (J Pharm Sci, 1999).
# Legend:
# [1] = target: T1, Solute carrier family 15 member 1 (Homo sapiens) (UniProt P46059); assay: TP_TRANSPORTER: uptake in PEPT1-expressing CHO cells; format: functional, cell-based
# T1 sequence (whole entry): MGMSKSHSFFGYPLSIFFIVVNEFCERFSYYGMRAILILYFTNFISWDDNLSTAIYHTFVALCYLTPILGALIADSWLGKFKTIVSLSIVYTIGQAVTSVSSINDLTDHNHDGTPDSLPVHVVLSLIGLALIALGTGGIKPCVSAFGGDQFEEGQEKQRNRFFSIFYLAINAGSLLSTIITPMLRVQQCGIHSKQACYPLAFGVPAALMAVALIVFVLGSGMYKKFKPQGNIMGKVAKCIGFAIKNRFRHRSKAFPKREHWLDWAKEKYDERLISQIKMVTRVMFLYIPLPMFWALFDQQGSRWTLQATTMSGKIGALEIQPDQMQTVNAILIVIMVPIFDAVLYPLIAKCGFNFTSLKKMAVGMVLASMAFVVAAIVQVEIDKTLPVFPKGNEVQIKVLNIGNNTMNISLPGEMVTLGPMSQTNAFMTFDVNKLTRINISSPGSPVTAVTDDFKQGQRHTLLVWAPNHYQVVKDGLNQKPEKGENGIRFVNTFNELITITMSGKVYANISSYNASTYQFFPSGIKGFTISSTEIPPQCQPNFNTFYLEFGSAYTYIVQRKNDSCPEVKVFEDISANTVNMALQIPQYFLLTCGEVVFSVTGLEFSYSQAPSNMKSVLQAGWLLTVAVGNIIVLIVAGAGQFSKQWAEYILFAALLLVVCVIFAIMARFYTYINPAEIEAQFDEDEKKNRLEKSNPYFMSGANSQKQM
# [2] = target: T2, Solute carrier family 15 member 1 (Homo sapiens, UniProt P46059); assay: TP_TRANSPORTER: inhibition of Gly-Sar uptake (Gly-Sar: 20 uM) in PEPT1-expressing CHO cells; format: functional, cell-based
# T2 sequence (P46059 whole entry): T1 sequence (whole entry)
Activity [1],IC50 [2],Compound
,141 mM,N[C@@H](Cc1ccc(O)c(O)c1)C(=O)O [LEVODOPA]
,152 mM,C[C@](N)(Cc1ccc(O)c(O)c1)C(=O)O [METHYLDOPA]

# Second part, the compound before the results:
Compound,Activity [1],IC50 [2]
CC1=C(C(=O)O)N2C(=O)[C@@H](NC(=O)[C@H](N)C3=CCC=CC3)[C@H]2SC1 [CEPHRADINE],substrate [+],15.3 mM
N[C@@H](C(=O)N[C@@H]1C(=O)N2C(C(=O)O)=C(Cl)CS[C@H]12)c1ccccc1 [CEFACLOR ANHYDROUS],substrate [+],8.2 mM
CCOC(=O)[C@H](CCc1ccccc1)N[C@@H](C)C(=O)N1CCC[C@H]1C(=O)O,,4.5 mM
